Test results reported in paper PMC9841531, “Indole Derivatives as New Structural Class of Potent and Antiproliferative Inhibitors of Monocarboxylate Transporter 1 (MCT1; SLC16A1)” (Journal of Medicinal Chemistry, 2022).

Key:
[1] = tested on: A-549 cells; assay: cell cycle distribution analysis, PI flow cytometry; type: cell-based; settings: 5 μM, 24 h
Procedure: The antineoplastic agent 33 (5 μM) was used as a reference. […] Compound 24 caused a disruption of the cell cycle of A-549 cancer cells, indicated by a shift from the predominant G0/G1 phase (Figure 8A) to the apoptotic sub-G1 phase as well as the G2/M phase (Figure 8B). A similar G2/M arrest could be observed for reference compound 33 (Figure 8C); however, MCT1 inhibitor 24 led to a larger fraction of cells into the sub-G1 phase, indicating induced apoptosis. This experiment discovered that compound 24 inhibits cell proliferation, causing cell cycle arrest and, eventually, apoptosis. To confirm our findings, we conducted an apoptosis assay using compound 24.
A standard PI staining procedure was used as described earlier[44]−[46] to determine the effect of compounds 24 and 33 on cell cycle progression, followed by flow cytometry analysis (FACS Aria SORP and FACS Aria Fusion, BD Biosciences, Franklin Lakes, NJ). In brief, A-549 cells were seeded onto a 6-well plate (250,000 cells/well) and incubated for 24 h at 37 °C under a 5% CO2-humidified atmosphere before being observed under a microscope. The cells were treated with compound 24 (5 μM) or 33 (5 μM) and further incubated for 24 h at 37 °C under a 5% CO2-humidified atmosphere. Then, the cells were harvested and washed twice with cold PBS (Genetix Biotech Asia, New Delhi, India) before being fixed overnight in ice-cold 70% (v/v) ethanol at 4 °C. The cells were again washed two times with PBS and subsequently resuspended with RNase (100 μg/mL; HiMedia, Mumbai, India) and their DNA was stained with PI (40 μg/mL; Sigma-Aldrich, Mumbai, India) before being incubated in the dark for 10 min. The DNA content was measured at the Indian Institute of Technology Bombay (IITB, Mumbai, India) by applying flow cytometry.

[2] = tested on: A-549 cells; assay: PI/Annexin V-FITC apoptosis assay; type: cell-based; settings: 5 μM
From the text: As compound 24 increased the sub-G1 cell cycle fraction of A-549 cells, we investigated its capability to induce apoptosis in a PI/Annexin V-FITC staining assay, as reported earlier.[44],[46]−[51] In short, cells that were stained with PI only were considered necrotic cells (Q1), while cells stained with both PI and Annexin V were late apoptotic (Q2), and cells stained with Annexin V only were early apoptotic (Q4). Cells negative on both PI and Annexin V were considered living cells (Q3).
A PI/Annexin V-FITC double staining method was used to carry out a flow cytometry-based apoptosis assay, as reported earlier.[44],[46]−[51] For this purpose, a PI/Annexin V-FITC apoptosis detection kit (BD Biosciences, Franklin Lakes, NJ) was used following the manufacturer’s instructions. A-549 cells were seeded onto 6-well plates with a density of 500,000 cells/well and incubated for 24 h at 37 °C under a 5% CO2-humidified atmosphere. Subsequently, the cells were exposed to compound 24 (5 μM) followed by a further incubation period of 24 h at 37 °C under a 5% CO2-humidified atmosphere. The cells were trypsinized, washed with PBS, and resuspended in 1x binding buffer (1,000,000 cells/mL). One hundred microliters of test solution containing 100,000 cells treated with a mixture of PI (5 μL) and Annexin V-FTIC (5 μL) was incubated in the dark for 10–15 min at room temperature. Four hundred microliters of binding buffer was added, and the cells were resuspended again just before the flow cytometry analysis by using flow cytometry.

COC(=O)/C(C#N)=C/c1cn(CC(=O)Nc2ccc(OC)cc2)c2ccccc12 [Compound 24, Methyl-2-cyano-3-(1-(2-((4-methoxyphenyl)amino)-2-oxoethyl)-1H-indol-3-yl) Acrylate]
cells in G0/G1 phase [1]: 38.1% | cells in G2/M phase [1]: 22.3% | cells in S phase [1]: 18.0% | cells in Sub-G1 phase [1]: 20.6% | factor of increase of total apoptotic cells vs untreated [2]: 13 | Q1 necrotic cells (PI only) ([2]; 24 h): 10.6% | Q2 late apoptotic cells (PI and Annexin V) ([2]; 24 h): 5.08% | Q3 living cells ([2]; 24 h): 82.7% | Q4 early apoptotic cells (Annexin V only) ([2]; 24 h): 1.60% | percentage of total apoptotic cells ([2]; 24 h, untreated 0.51%): 6.68%
